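In this assay, cells in 96-well plates receive the compound at five concentrations for 48 hours. Endpoints are linearly interpolated between the surrounding concentrations. GI50 = concentration required for 50% inhibition of growth.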 The source made the active and inactive calls. Rule as the data show it: active = GI50 up to about 1.1 µM and inactive = higher. Positions of bridges follow the written chain, without caps; N, C: chain ends. Non-standard residues stand in square brackets, D forms with d. Residues, ends and D or L forms follow the SMILES beside them. ξ: configuration not given here. *: point of attachment. X28 = O=C(/C=C/C=C/C=C/C=C/C=C/C(=O)*)NC1=C(O)CCC1=O; Pro(4R-Me) = C[C@H]1CN[C@H](C(=O)O)C1; NMeA = CN[C@@H](C)C(=O)O; ξF = NC(Cc1ccccc1)C(=O)O; ξA = CC(N)C(=O)O
Tests used:
Assay in all cases: inhibition of tumour cell growth, NCI panel, 48 h
[1] = tested on: A549
[2] = tested on: CAKI-1
[3] = tested on: CCRF-CEM
[4] = tested on: EKVX
[5] = tested on: HCT-15
[6] = tested on: HT-29
[7] = tested on: M14
[8] = tested on: NCI-H226
[9] = tested on: NCI-H522
[10] = tested on: OVCAR-3
[11] = tested on: OVCAR-8
[12] = tested on: RPMI-8226
[13] = tested on: RXF 393
[14] = tested on: SF-539
[15] = tested on: SK-OV-3
[16] = tested on: SR
[17] = tested on: SW-620
[18] = tested on: U-251
[19] = tested on: UACC-257

Compound	GI50 [1]	GI50 [2]	GI50 [3]	GI50 [4]	GI50 [5] [µM]	GI50 [6]	GI50 [7]	GI50 [8]	GI50 [9]	GI50 [10]	GI50 [11]	GI50 [12]	GI50 [13]	GI50 [14]	GI50 [15]	GI50 [16]	GI50 [17]	GI50 [18]	GI50 [19]
Cn1c(N(CCO)CCO)cnc1[N+](=O)[O-]	> 100 µM (inactive)	> 100 µM (inactive)	> 100 µM (inactive)	> 100 µM (inactive)	> 100	> 100 µM (inactive)	> 100 µM (inactive)	> 100 µM (inactive)	> 100 µM (inactive)	> 100 µM (inactive)	> 100 µM (inactive)	> 100 µM (inactive)	> 100 µM (inactive)	> 100 µM (inactive)	> 100 µM (inactive)	> 100 µM (inactive)	> 100 µM (inactive)	> 100 µM (inactive)	> 100 µM (inactive)
CN(C)CCCNc1ccnc2cc([N+](=O)[O-])ccc12	22.5 µM (inactive)	26.9 µM (inactive)	> 100 µM (inactive)		12.1	2.68 µM (inactive)	12 µM (inactive)	14.9 µM (inactive)	3.6 µM (inactive)	5.11 µM (inactive)	13.9 µM (inactive)	59.2 µM (inactive)	11.2 µM (inactive)	16.3 µM (inactive)	21.2 µM (inactive)	> 100 µM (inactive)	7.45 µM (inactive)	23.7 µM (inactive)	13.9 µM (inactive)
OC(CCNCc1ccccc1)c1ccc2ccccc2c1 (configuration not stated)	19 µM (inactive)	21.8 µM (inactive)	1.68 µM (inactive)	34.8 µM (inactive)	20.5	22.9 µM (inactive)	36.1 µM (inactive)	23.8 µM (inactive)	18.7 µM (inactive)	13.3 µM (inactive)	23.3 µM (inactive)	23.8 µM (inactive)	16.7 µM (inactive)	16.9 µM (inactive)		35.6 µM (inactive)	19.7 µM (inactive)	16.9 µM (inactive)	18 µM (inactive)
O=c1oc2c/c(=C\c3ccccn3)c(=O)c3cccc1c3-2		> 100 µM (inactive)	33.8 µM (inactive)	> 100 µM (inactive)	> 100	> 100 µM (inactive)	> 100 µM (inactive)	28.3 µM (inactive)	16.1 µM (inactive)	7.59 µM (inactive)	16.5 µM (inactive)	28.6 µM (inactive)	5.56 µM (inactive)	19.7 µM (inactive)	> 100 µM (inactive)	54.8 µM (inactive)	> 100 µM (inactive)		> 100 µM (inactive)
COc1ccc(OC)c([N+](=O)[O-])c1-c1nc2sc(C)c(C)n2c1/C=N/N=C(N)N	> 100 µM (inactive)	> 100 µM (inactive)	50.7 µM (inactive)	> 100 µM (inactive)	> 100	43.4 µM (inactive)	76.7 µM (inactive)	> 100 µM (inactive)	41.8 µM (inactive)	> 100 µM (inactive)	> 100 µM (inactive)	32.4 µM (inactive)	> 100 µM (inactive)	> 100 µM (inactive)		62.4 µM (inactive)	66.4 µM (inactive)	49.7 µM (inactive)	> 100 µM (inactive)
Cc1cccc(C)c1Nc1nc(C)c(C(=O)CC(=O)C(=O)Nc2c(C(C)C)cccc2C(C)C)s1	> 100 µM (inactive)	> 100 µM (inactive)		> 100 µM (inactive)	> 100	> 100 µM (inactive)	> 100 µM (inactive)	> 100 µM (inactive)	> 100 µM (inactive)	72.6 µM (inactive)	> 100 µM (inactive)	56.8 µM (inactive)	43.8 µM (inactive)	> 100 µM (inactive)	89.7 µM (inactive)	69.3 µM (inactive)	> 100 µM (inactive)	> 100 µM (inactive)	> 100 µM (inactive)
CC(C)=CCN=C(N)N	> 100 µM (inactive)	> 100 µM (inactive)	> 100 µM (inactive)	> 100 µM (inactive)	> 100	> 100 µM (inactive)		> 100 µM (inactive)	> 100 µM (inactive)		> 100 µM (inactive)	24.9 µM (inactive)	> 100 µM (inactive)	> 100 µM (inactive)	> 100 µM (inactive)	16.7 µM (inactive)	> 100 µM (inactive)	> 100 µM (inactive)	> 100 µM (inactive)
CC1NC(=O)[C@H](C)N(C)C(=O)[C@@H]2CCCN2C(=O)[C@@H](NC(=O)C(Cc2ccccc2)NC(=O)/C=C/C=C/C=C/C=C/C=C/C(=O)NC2=C(O)CCC2=O)COC(=O)[C@@H]2C[C@@H](C)CN2C1=O (stereo partly drawn) (X28-[ξF]SP[NMeA][ξA][Pro(4R-Me)]; ester 2-C)	> 100 µM (inactive)	> 100 µM (inactive)	> 100 µM (inactive)	> 100 µM (inactive)	> 100	> 100 µM (inactive)	> 100 µM (inactive)		> 100 µM (inactive)	> 100 µM (inactive)		> 100 µM (inactive)	> 100 µM (inactive)	> 100 µM (inactive)	> 100 µM (inactive)	> 100 µM (inactive)	> 100 µM (inactive)	> 100 µM (inactive)	> 100 µM (inactive)
